Tests used:
[1] = system: AN3CA; test: In vitro activity against cancer cell lines, 3H-thymidine incorporation; type: cell-based, human; details: FR expression −; evaluated from 0.1-100 nM
Method: (§1) METHOD. In vitro activity against various cancer cell lines. IC50 values were generated for various cell lines. Cells were heavily seeded in 24-well Falcon plates and allowed to form nearly confluent monolayers overnight. Thirty minutes prior to the addition of the test compound, spent medium was aspirated from all wells and replaced with fresh folate-deficient RPMI medium (FFRPMI). A subset of wells were designated to receive media containing 100 μM folic acid. The cells in the designated wells were used to determine the targeting specificity. Without being bound by theory it is believed herein that the cytotoxic activity produced by test compounds in the presence of excess folic acid, i.e. where there is competition for FR binding, corresponds to the portion of the total activity that is unrelated to FR-specific delivery. Following one rinse with 1 mL of fresh FFRPMI containing 10% heat-inactivated fetal calf serum, each well received 1 mL of medium containing increasing concentrations of test compound (4 wells per sample) in the presence or absence of 100 μM free folic acid as indicated. Treated cells were pulsed for 2 h at 37° C., rinsed 4 times with 0.5 mL of media, and then chased in 1 mL of fresh medium up to 70 h. Spent medium was aspirated from all wells and replaced with fresh medium containing 5 μCi/mL ^3H-thymidine. Following a further 2 h 37° C. incubation, cells were washed 3 times with 0.5 mL of PBS and then treated with 0.5 mL of ice-cold 5% trichloroacetic acid per well. After 15 min, the trichloroacetic acid was aspirated and the cell material solubilized by the addition of 0.5 mL of 0.25 N sodium hydroxide for 15 min. A 450 μL aliquot of each solubilized sample was transferred to a scintillation vial containing 3 mL of Ecolume scintillation cocktail and then counted in a liquid scintillation counter. Final results are expressed as the percentage of ^3H-thymidine incorporation relative to untreated controls.

[2] = system: MDA-MB-231; test: as above; type: cell-based, human
Method: as §1

[3] = system: IGROV1; test: as above; type: cell-based, human
Method: as §1

[4] = system: HepG2; test: as above; type: cell-based, human; details: FR expression −; evaluated from 0.1-100 nM
Method: as §1

[5] = system: LNCaP; test: as above; type: cell-based, human; details: FR expression −
Method: as §1

[6] = system: A549; test: as above; type: cell-based, human; details: FR expression −; evaluated from 0.1-100 nM
Method: as §1

[7] = biological target: T1, folate receptors (FRs) on KB cells (Homo sapiens, UniProt P15328); test: Relative Affinity Assay (3H-folic acid displacement); type: binding
T1 construct: FR-positive KB cells were heavily seeded into 24-well cell culture plates; endogenous in cells; host or cells: KB cells (human cervical carcinoma)
T1 sequence (P15328 25-234): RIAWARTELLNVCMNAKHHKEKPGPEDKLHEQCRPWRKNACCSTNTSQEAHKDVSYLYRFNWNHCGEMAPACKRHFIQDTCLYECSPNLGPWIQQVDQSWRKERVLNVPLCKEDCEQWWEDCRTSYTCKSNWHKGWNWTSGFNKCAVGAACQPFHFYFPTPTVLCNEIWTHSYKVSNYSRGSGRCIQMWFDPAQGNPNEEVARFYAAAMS
Method: METHOD. Relative Affinity Assay. […] Briefly, FR-positive KB cells were heavily seeded into 24-well cell culture plates and allowed to adhere to the plastic for 18 h. Spent incubation media was replaced in designated wells with folate-free RPMI (FFRPMI) supplemented with 100 nM ^3H-folic acid in the absence and presence of increasing concentrations of test article or folic acid. Cells were incubated for 60 min at 37° C. and then rinsed 3 times with PBS, pH 7.4. […] Cell lysates were then collected and added to individual vials containing 5 mL of scintillation cocktail, and then counted for radioactivity. Negative control tubes contained only the ^3H-folic acid in FFRPMI (no competitor). Positive control tubes contained a final concentration of 1 mM folic acid, and CPMs measured in these samples (representing non-specific binding of label) were subtracted from all samples.

[8] = system: FR expressing cells (FR+) and cells that do not express FR (FR−); test: Selectivity for folate receptor expressing cells; type: cell-based, human
[9] = system: ST040 tumors; test: Endometrial PDX tumor model; type: in vivo, Balb/c nu/nu mice; details: combined with Paclitaxel 15 mg/kg
Method: (§2) Female Balb/c nu/nu mice were fed ad libitum with folate-deficient chow (Harlan diet #TD01013) for the duration of the experiment. Primary human Endometrial model ST040, TNBC models 5T502 and ST738 and Ovarian model ST024 fragments (2-4 mm in diameter) were inoculated subcutaneously at the right flank of each mouse. Mice were randomized into 6 experimental groups of 5 or 3 mice each and test articles were injected through the lateral tail vein under sterile conditions in a volume of 200 μL of phosphate-buffered saline (PBS).
(§3) Growth of each s.c. tumor was followed by measuring the tumor two times per week until a volume of 1200 mm^3 was reached. Tumors were measured in two perpendicular directions using Vernier calipers, and their volumes were calculated as 0.5×L×W^2, where L=measurement of longest axis in mm and W=measurement of axis perpendicular to L in mm.

[10] = system: ST024 tumors; test: Ovarian PDX tumor model; type: in vivo, Balb/c nu/nu mice; details: combined with Paclitaxel 15 mg/kg
Method: as §2, §3

[11] = system: ST502 tumors; test: TNBC PDX tumor model; type: in vivo, Balb/c nu/nu mice; details: combined with Eribulin mesylate 1 mg/kg
Method: as §2, §3

[12] = system: ST738 tumors; test: TNBC PDX tumor model; type: in vivo, Balb/c nu/nu mice; details: combined with Eribulin mesylate 1 mg/kg
Method: as §2, §3

[13] = system: MDA-MB-231 tumors; test: TNBC Tumor Assay, s.c. MDA-MB-231 xenografts; type: in vivo, nu/nu mice
Description: METHOD. TNBC Tumor Assay. Triple negative breast cancer (TNBC) is a subtype characterized by lack of gene expression for estrogen, progesterone and Her2/neu. TNBC is difficult to treat, and the resulting death rate in patients is reportedly disproportionately higher than for any other subtype of breast cancer. A TNBC xenograft model was generated in an analogous way to the KB and M109 models described herein by implanting MDA-MB-231 breast cancer cells in nu/nu mice. Dosing was initiated when the s.c. tumors have an average volume between 110-150 (generally 130) mm^3 (t0), typically 17 days post tumor inoculation (PTI). Test animals (5/group) were injected i.v., generally three times a week (TIW), for 2-3 weeks with varying doses, such as with 1 μmol/kg to 5 μmol/kg, of the drug delivery conjugate or with an equivalent dose volume of PBS (control), unless otherwise indicated. Dosing solutions were prepared fresh each day in PBS and administered through the lateral tail vein of the mice.

[14] = EC1456 1.5 μmol/kg two times a week for two weeks
[15] = EC1456 3 μmol/kg once a week for two weeks
[16] = EC1456 2 μmol/kg two times a week for two weeks
[17] = EC1456 4 μmol/kg once a week for two weeks

CCCC(=O)OCN(C(=O)[C@@H](NC(=O)[C@H]1CCCCN1C)C(C)CC)[C@H](C[C@@H](OC(C)=O)c1nc(C(=O)N[C@@H](Cc2ccc(O)cc2)C[C@H](C)C(=O)NNC(=O)OCCSSC[C@@H](NC(=O)[C@H](CCC(=O)NC[C@H](O)[C@@H](O)[C@H](O)[C@H](O)CO)NC(=O)[C@@H](CCC(=O)O)NC(=O)[C@H](CCC(=O)NC[C@H](O)[C@@H](O)[C@H](O)[C@H](O)CO)NC(=O)[C@@H](CCC(=O)O)NC(=O)[C@H](CCC(=O)NC[C@H](O)[C@@H](O)[C@H](O)[C@H](O)CO)NC(=O)CC[C@@H](NC(=O)c2ccc(NCc3cnc4nc(N)[nH]c(=O)c4n3)cc2)C(=O)O)C(=O)O)cs1)C(C)C (stereo in doubt) [EC1456]
Activity (IC50) [1]: Inactive | IC50 ([2]; FR expression +): 0.47 nM | Competable up to 100 nM ([2]; folic acid competition): Yes | IC50 ([3]; FR expression +): 0.72 nM | Competable up to 100 nM ([3]; folic acid competition): Yes | Activity (IC50) [4]: Inactive | IC50 [5]: ~850 nM | Activity (IC50) [6]: Inactive (a) | Relative Affinity (a) [7]: 0.27 | binding to low and high FR expressing cells (FR+) ([8]; FR+ cells): high competable binding | binding to cells that do not express FR (FR−) ([8]; FR− cells): did not show binding | animal exhibiting cure [9, 14]: 1 animal | animals exhibiting PRs [9, 14]: 3 animals | animals exhibiting PR's [9, 15]: 2 animals | animals exhibiting stable disease [9, 15]: 3 animals | animals exhibiting cures [10, 16]: 100% | animals exhibiting cures [10, 17]: 100% | animals exhibiting CRs [11, 16]: 5 animals | animals exhibiting cures [11, 16]: 2 animals | animals exhibiting CR's [11, 17]: 3 animals | animals exhibiting PR's [11, 17]: 4 animals | animals exhibiting cures [12, 16]: 7 animals | animals exhibiting PR's [12, 17]: 2 animals | animals exhibiting cures [12, 17]: 4 animals | tumor regrowth ([13]; 2 μmol/kg i.v. TIW 2 weeks, observation window nearly 135 days): regrowth did not occur | complete responses (tumor volume reduced to zero) ([13]; 2 μmol/kg intravenous, three times per week, 2 consecutive weeks): 4 of 5
